Source: the NIST ThermoML archive (doi:10.1016/j.jct.2015.07.044)
± gives the expanded uncertainty stated by the source.

Assay: excess molar enthalpy (molar enthalpy of mixing); xn = mol fraction of the nth substance listed
Conditions: 298.15 K, 100 kPa, Liquid, Isoperibol calorimetry

CCCOCC(C)O (stereo not given) [1-propoxy-2-propanol] + O
Conditions | excess molar enthalpy [kcal/mol]
x1 = 0.00199 | -0.012 ± 0.00239
x1 = 0.00509 | -0.0263 ± 0.00239
x1 = 0.00988 | -0.0454 ± 0.00239
x1 = 0.01524 | -0.0693 ± 0.00239
x1 = 0.02082 | -0.0765 ± 0.00239
x1 = 0.02573 | -0.0884 ± 0.00478
x1 = 0.0299 | -0.11 ± 0.00478
x1 = 0.03983 | -0.12 ± 0.00478
x1 = 0.05248 | -0.124 ± 0.00478
x1 = 0.09463 | -0.141 ± 0.00478
x1 = 0.09856 | -0.141 ± 0.00478
x1 = 0.1198 | -0.146 ± 0.00717
x1 = 0.1284 | -0.146 ± 0.00717
x1 = 0.1504 | -0.148 ± 0.00717
x1 = 0.1711 | -0.148 ± 0.00717
x1 = 0.2286 | -0.148 ± 0.00717
x1 = 0.297 | -0.141 ± 0.00478
x1 = 0.3791 | -0.131 ± 0.00478
x1 = 0.4088 | -0.129 ± 0.00478
x1 = 0.4372 | -0.124 ± 0.00478
x1 = 0.494 | -0.105 ± 0.00478
x1 = 0.5971 | -0.0837 ± 0.00478
x1 = 0.6988 | -0.0669 ± 0.00239
x1 = 0.7467 | -0.0598 ± 0.00239
x1 = 0.8056 | -0.0478 ± 0.00239
x1 = 0.8534 | -0.0382 ± 0.00239
x1 = 0.8713 | -0.0335 ± 0.00239
x1 = 0.9051 | -0.0263 ± 0.00239
x1 = 0.9205 | -0.0215 ± 0.00239
x1 = 0.9499 | -0.0143 ± 0.00239
